“And” between values parts separate entries of the source, which are not always exact repeats. Equal values may be shown once.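 Test compounds were applied to cells in 96-well plates for 48 hours at 5 doses. Abbreviation: GI50, concentration required for 50% inhibition of growth. TGI: concentration producing complete growth inhibition.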

Test systems include TK-10 renal; BT-549 breast; SK-MEL-5 melanoma; HS 578T breast; HL-60(TB) leukemia; OVCAR-4 ovarian; HCT-116 colon; MALME-3M melanoma; K-562 leukemia; KM12 colon.
What all share (test): inhibition of tumour cell growth, NCI panel, 48 h

As to `c1ccc([As]=[As]c2ccccc2)cc1` (stereo not given), the GI50 is 1.61 µM in the test on TK-10 renal; 1.23 µM in the test on BT-549 breast; 1.41 µM in the test with SK-MEL-5 melanoma; 1.55 µM in the test with HS 578T breast; 1.19 µM in the test with HL-60(TB) leukemia; 1.08 µM in the test on OVCAR-4 ovarian. For the same molecule, the GI50 was 1.14 µM in the test with HCT-116 colon, 1.29 µM in the test on MALME-3M melanoma, 0.311 µM in the test on K-562 leukemia and 1.87 µM in the test on KM12 colon. Also, the TGI was determined as 3.38 µM in the test with TK-10 renal; 2.87 µM in the test with BT-549 breast; 3.57 µM in the test on SK-MEL-5 melanoma; 10.5 µM in the test with HS 578T breast; 4.19 µM with HL-60(TB) leukemia; 2.43 µM in the test on OVCAR-4 ovarian. Moreover, the TGI in the test on HCT-116 colon worked out at 3.7 µM; in the test on MALME-3M melanoma, 3.23 µM; in the test with K-562 leukemia, 2.1 µM; with KM12 colon, 3.69 µM.
In the case of `CN1CCN(CCOc2cc(OC3CCOCC3)c3c(Nc4c(Cl)ccc5c4OCO5)ncnc3c2)CC1`, the GI50 in the test on TK-10 renal is 0.671 µM and 0.517 µM; with BT-549 breast, 15.6 µM and > 10 µM; in the test with SK-MEL-5 melanoma it was 11.4 µM and > 10 µM; in the test with HS 578T breast, 0.732 µM and 1.7 µM; in the test on HL-60(TB) leukemia, 18.7 µM and > 10 µM; in the test with OVCAR-4 ovarian, 13.5 µM and > 10 µM. The GI50 in the test on HCT-116 colon is 8.75 µM and 2.76 µM; in the test on MALME-3M melanoma, 14.1 µM and > 10 µM; in the test with K-562 leukemia, 0.382 µM and 0.47 µM; with KM12 colon it was 1.32 µM and 2.23 µM. Also, the TGI in the test with TK-10 renal is 6.4 µM and > 10 µM; in the test on BT-549 breast, 30.7 µM and > 10 µM; with SK-MEL-5 melanoma it was 23.6 µM and > 10 µM; with HS 578T breast, 11.2 µM and > 10 µM; in the test with HL-60(TB) leukemia it was 37.8 µM and > 10 µM; in the test with OVCAR-4 ovarian it was 34.7 µM and > 10 µM. In addition, the TGI is 29.2 µM and > 10 µM in the test on HCT-116 colon; 30.1 µM and > 10 µM in the test with MALME-3M melanoma; 9.24 µM and > 10 µM with K-562 leukemia; 15.1 µM and > 10 µM with KM12 colon.
With `CCOC(=O)/C=C/C(=O)[C@H](CC(C)C)NC(=O)[C@H](Cc1ccccc1)NC(=O)OCc1ccccc1`, the GI50 was 1.87 µM in the test on TK-10 renal; 14.4 µM in the test on BT-549 breast; 16.4 µM with SK-MEL-5 melanoma; 10.9 µM in the test with HS 578T breast; 2.26 µM in the test with HL-60(TB) leukemia; 12.9 µM in the test with OVCAR-4 ovarian. For the same molecule, the GI50 with HCT-116 colon is 2.87 µM; with MALME-3M melanoma it was 3.89 µM; in the test on K-562 leukemia, 2.09 µM; with KM12 colon, 12.2 µM. Moreover, the TGI amounted to 3.81 µM in the test with TK-10 renal; 27.6 µM in the test on BT-549 breast; 31.1 µM with SK-MEL-5 melanoma; 67.9 µM in the test on HS 578T breast; 9.67 µM in the test with HL-60(TB) leukemia; 26.6 µM in the test with OVCAR-4 ovarian. Also, the TGI with HCT-116 colon came to 9.43 µM; with MALME-3M melanoma, 15.3 µM; in the test with K-562 leukemia, 10.5 µM; in the test with KM12 colon, 27.8 µM.
For `O=c1oc2ccc(-c3ccc(F)cc3F)cc2c(=O)n1-c1ccc(Cl)c(C(F)(F)F)c1`, the GI50 with TK-10 renal was 4.41 µM; in the test with BT-549 breast it was 2.06 µM; in the test on SK-MEL-5 melanoma it was 1.6 µM; in the test with HS 578T breast it was 2.42 µM; in the test with HL-60(TB) leukemia it was 2.43 µM; with OVCAR-4 ovarian, 3.16 µM. Moreover, the GI50 in the test with HCT-116 colon is 1.75 µM; in the test on MALME-3M melanoma it was 2.19 µM; in the test on K-562 leukemia, 2.38 µM; with KM12 colon, 2.36 µM. The TGI in the test with TK-10 renal was 19.1 µM; with BT-549 breast, 5.17 µM; with SK-MEL-5 melanoma, 3.05 µM; with HS 578T breast it was 8.16 µM; in the test with HL-60(TB) leukemia, 5.35 µM; with OVCAR-4 ovarian, greater than 100 µM. Further, the TGI in the test with HCT-116 colon was 3.49 µM; in the test with MALME-3M melanoma it was 5.73 µM; with K-562 leukemia it was greater than 100 µM; in the test with KM12 colon it was 5.85 µM.
As for `CCN1C[C@]2(COC)[C@H](O)C[C@H](OC)[C@]34C1[C@H]([C@H](OC)[C@H]23)[C@]1(OC(C)=O)[C@H]2[C@@H](OC(=O)c3ccccc3)[C@](O)(C[C@H]24)[C@@H](OC)[C@@H]1O`, the TGI with TK-10 renal, in the test on BT-549 breast, with SK-MEL-5 melanoma, with HS 578T breast, in the test on HL-60(TB) leukemia and in the test on OVCAR-4 ovarian was greater than 100 µM each time. Further, the TGI with HCT-116 colon, in the test with MALME-3M melanoma, in the test with K-562 leukemia and with KM12 colon was greater than 100 µM throughout.
On to `COc1ccc(C2C=C(c3ccc(Cl)cc3)N=C3SC=C(C)N32)c(Br)c1` (stereo not given), for which the GI50 in the test on TK-10 renal is 4.05 µM; in the test with BT-549 breast, 3.22 µM; with SK-MEL-5 melanoma, 2.8 µM; with HS 578T breast, 2.19 µM; in the test with HL-60(TB) leukemia, 3.85 µM; in the test on OVCAR-4 ovarian it was 3.89 µM. For the same molecule, the GI50 is 2.58 µM with HCT-116 colon, 8.31 µM with MALME-3M melanoma, 4.02 µM in the test with K-562 leukemia and 2.26 µM with KM12 colon. The TGI amounted to 14.4 µM with TK-10 renal; 12.4 µM in the test with BT-549 breast; 11.2 µM with SK-MEL-5 melanoma; 7.5 µM in the test with HS 578T breast; 51.5 µM in the test on HL-60(TB) leukemia; 34.6 µM in the test with OVCAR-4 ovarian. The TGI in the test on HCT-116 colon is 11 µM; in the test with MALME-3M melanoma it was 22.8 µM; in the test on K-562 leukemia, greater than 100 µM; in the test on KM12 colon, 5.77 µM.
In the case of `O=C(Nc1ccccc1O)c1ccc(NS(=O)(=O)c2cccc3cccnc23)cc1`, the GI50 was 0.704 µM in the test on TK-10 renal; 2.79 µM with BT-549 breast; 0.838 µM with SK-MEL-5 melanoma; 0.787 µM with HS 578T breast; 1.03 µM with HL-60(TB) leukemia; 2.24 µM in the test with OVCAR-4 ovarian. Also, the GI50 was 0.752 µM with HCT-116 colon, 0.827 µM with MALME-3M melanoma, 0.971 µM in the test on K-562 leukemia and 2.73 µM with KM12 colon. The TGI amounted to 3.45 µM in the test with TK-10 renal; 7.94 µM in the test with BT-549 breast; 3.42 µM in the test with SK-MEL-5 melanoma; 11.8 µM in the test with HS 578T breast; 12.9 µM in the test with HL-60(TB) leukemia; 24.5 µM in the test with OVCAR-4 ovarian. For the same molecule, the TGI in the test with HCT-116 colon was 3.1 µM; with MALME-3M melanoma, greater than 25 µM; with K-562 leukemia, greater than 25 µM; in the test on KM12 colon, 7.29 µM.

The values are drawn from PubChem BioAssay (NCI).
